Reference: PubChem BioAssay (NCI)
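1) Cells in 96-well plates. 2) Compound, 48 h, 5 concentrations. 3) Linear interpolation between surrounding doses. 4) Unreached endpoint = highest concentration. Abbreviation: GI50, concentration required for 50% inhibition of growth. TGI denotes the concentration required for complete inhibition of growth.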

Assays:
Assay in all cases: growth of human tumour cells (NCI), 48 h
SK-MEL-2 melanoma = tested on: SK-MEL-2 melanoma
HL-60(TB) leukemia = tested on: HL-60(TB) leukemia
NCI-H460 lung = tested on: NCI-H460 lung
786-0 renal = tested on: 786-0 renal
NCI-H522 lung = tested on: NCI-H522 lung
HCT-116 colon = tested on: HCT-116 colon
IGROV1 ovarian = tested on: IGROV1 ovarian
MDA-MB-231 breast = tested on: MDA-MB-231 breast
TK-10 renal = tested on: TK-10 renal
UACC-62 melanoma = tested on: UACC-62 melanoma

Compound | TGI (SK-MEL-2 melanoma) | TGI (HL-60(TB) leukemia) | TGI (NCI-H460 lung) | TGI (786-0 renal) | TGI (NCI-H522 lung) | TGI (HCT-116 colon) | TGI (IGROV1 ovarian) | TGI (MDA-MB-231 breast) | TGI (TK-10 renal) | TGI (UACC-62 melanoma) | GI50 (SK-MEL-2 melanoma) | GI50 (HL-60(TB) leukemia) | GI50 (NCI-H460 lung) | GI50 (NCI-H522 lung) | GI50 (HCT-116 colon) | GI50 (IGROV1 ovarian) | GI50 (MDA-MB-231 breast) | GI50 (TK-10 renal) | GI50 (UACC-62 melanoma)
CNc1ncnc(Sc2nc(N)nc3nc[nH]c23)c1[N+](=O)[O-] | 8.9 µM | 6.7 µM | 3.28 µM | 16.5 µM | 6.76 µM | 11.9 µM | 22.1 µM | 20.6 µM | 0.941 µM | 16.2 µM | – | – | – | – | – | – | – | – | –
CCC1(C)C=Cc2c(cc(OC)c3c(=O)c4ccccc4n(C)c23)O1 (stereo not given) | > 10 µM | – | > 10 µM | > 10 µM | > 10 µM | > 10 µM | > 10 µM | > 10 µM | > 10 µM | > 10 µM | – | – | – | – | – | – | – | – | –
CN(C)CCCNc1c(O)c2c(c(O)c1Cl)C(=O)C=CC2=O | – | – | 3.81 µM | 3.25 µM | – | 5.1 µM | 3.45 µM | 7.77 µM | > 10 µM | 3.18 µM | – | – | – | – | – | – | – | – | –
OC1(c2ccccc2)CC2CCC(C1)N2CCc1ccccc1 (stereo not given) | > 100 µM | > 100 µM | > 100 µM | > 100 µM | – | > 100 µM | > 100 µM | > 100 µM | > 100 µM | > 100 µM | – | – | – | – | – | – | – | – | –
O=c1[nH]c2ccc(C(F)(F)F)cc2nc1-c1ccccc1 | – | > 100 µM | > 100 µM | > 100 µM | > 100 µM | > 100 µM | > 100 µM | > 100 µM | > 100 µM | > 100 µM | – | – | – | – | – | – | – | – | –
CCOC(=O)C1C(=O)CC(O)(OCC)C(C(=O)OCC)C1c1ccc(OC)cc1 (stereo not given) | > 100 µM | > 100 µM | > 100 µM | > 100 µM | > 100 µM | > 100 µM | > 100 µM | > 100 µM | > 100 µM | > 100 µM | – | – | – | – | – | – | – | – | –
Cc1cc2nc3n[nH]c(N)c3nc2cc1C | > 100 µM | > 100 µM | > 100 µM | > 100 µM | > 100 µM | > 100 µM | > 100 µM | > 100 µM | > 100 µM | > 100 µM | – | – | – | – | – | – | – | – | –
C=C1C(=O)O[C@@H]2[C@H]3O[C@]3(C)CCC=C(C)CC[C@@H]12 | 37.7 µM | 23.4 µM | 56.4 µM | – | 17.1 µM | 35.1 µM | 52.4 µM | – | – | 37.7 µM | – | – | – | – | – | – | – | – | –
CCOc1c2ccsc2c(OCC)c2ccsc12 | > 100 µM | 7.43 µM | > 100 µM | > 100 µM | > 28.9 µM | > 100 µM | > 100 µM | > 100 µM | > 100 µM | > 100 µM | – | – | – | – | – | – | – | – | –
CN(C)c1nc(N(C)C)nc(N(C)C)n1 | > 150 µM | > 148 µM | > 150 µM | > 150 µM | > 150 µM | > 150 µM | > 135 µM | > 150 µM | > 150 µM | > 150 µM | – | – | – | – | – | – | – | – | –
CCOC(=O)C1(C(=O)OCC)C[C@]23OCCC(=O)[C@H]2[C@H]2C(=O)OC(C)(C)O[C@]23C1 | > 100 µM | > 100 µM | > 100 µM | > 100 µM | > 100 µM | > 100 µM | > 100 µM | > 100 µM | > 100 µM | > 100 µM | – | – | – | – | – | – | – | – | –
CCCC1NC(=O)C(CC(C)C)NC(=O)c2cccc(n2)C(=O)NC(CC(C)C)C(=O)NC(CCC)C(=O)NC(C(=O)OC)CCCCNC1=O (stereo not given) | > 100 µM | – | > 100 µM | > 100 µM | – | > 100 µM | > 100 µM | 48.9 µM | > 100 µM | 51.5 µM | – | – | – | – | – | – | – | – | –
CCN(CC)C(=S)SS(=O)(=O)c1ccccc1C(=O)O | > 100 µM | > 42 µM | > 100 µM | > 100 µM | > 36.3 µM | > 100 µM | > 100 µM | > 100 µM | > 100 µM | > 100 µM | – | – | – | – | – | – | – | – | –
CC(=O)OCC1OC(On2ccccc2=S)C(OC(C)=O)C(OC(C)=O)C1OC(C)=O (stereo not given) | > 100 µM | > 100 µM | > 100 µM | > 100 µM | > 100 µM | > 100 µM | > 100 µM | > 100 µM | > 100 µM | > 100 µM | – | – | – | – | – | – | – | – | –
CCc1ccc(-c2nnc(COc3ccc(-c4nc5ccc(C)cc5[nH]4)cc3OC)o2)cc1 | 7.81 µM | 4.26 µM | 18.4 µM | – | 25.2 µM | 11.2 µM | > 100 µM | 4.87 µM | 5.61 µM | 5.09 µM | 2.71 µM | 2.01 µM | 3.38 µM | 3.1 µM | 3.19 µM | 4.94 µM | 2.05 µM | 2.72 µM | 2.12 µM
CNC(=S)/C(=N\Nc1nc[nH]c1C(N)=O)C(N)=S | > 82.3 µM | 7.83 µM | > 100 µM | > 100 µM | > 91.7 µM | > 100 µM | > 61 µM | > 24 µM | > 57.5 µM | > 92.8 µM | – | – | – | – | – | – | – | – | –
CCOC(=O)c1c(C)n(Cc2ccccc2)c(=O)c2ccccc2c(=O)c2c(=O)ccc(=O)c1=2 | > 100 µM | > 100 µM | > 100 µM | 75.3 µM | 62.8 µM | 46.8 µM | 67.9 µM | > 100 µM | 54 µM | > 100 µM | – | – | – | – | – | – | – | – | –
COc1ccc(/C=C2\C=Cc3ccccc32)cc1OC | > 100 µM | 69.5 µM | > 100 µM | > 100 µM | > 100 µM | > 100 µM | > 100 µM | > 100 µM | > 100 µM | > 100 µM | – | – | – | – | – | – | – | – | –
Cc1[nH]c2ncn3nc(C(Cl)(Cl)Cl)nc3c2c1Cc1ccccc1 | > 100 µM | > 100 µM | > 100 µM | > 100 µM | > 100 µM | > 100 µM | > 100 µM | > 100 µM | > 100 µM | > 100 µM | – | – | – | – | – | – | – | – | –
O=C(OCCN=C1c2ccccc2CCc2ccccc21)c1cc([N+](=O)[O-])cc([N+](=O)[O-])c1 | > 31.6 µM | > 100 µM | > 31.6 µM | > 31.6 µM | – | > 31.6 µM | > 31.6 µM | > 31.6 µM | > 31.6 µM | > 31.6 µM | – | – | – | – | – | – | – | – | –
CSC1=N/C(=C\c2ccc(C)cc2)C(=O)N1CN1CCOCC1 | > 100 µM | > 100 µM | – | > 100 µM | > 100 µM | > 100 µM | > 100 µM | > 100 µM | > 100 µM | > 100 µM | – | – | – | – | – | – | – | – | –
